# Literature values in patent US20260069593A1, “METHODS FOR TREATING CANCER” (AMGEN INC., priority 2022, published 2026).
# Tested on: extracellular signal-regulated kinase (ERK)
# Conditions: preclinical studies
structure (smiles),measurement,value
"C=CC(=O)N1CCN(c2nc(=O)n(-c3c(C)ccnc3C(C)C)c3nc(-c4c(O)cccc4F)c(F)cc23)[C@@H](C)C1 (atropisomer, axis not shown; (M)) [sotorasib, 6-fluoro-7-(2-fluoro-6-hydroxyphenyl)-(1M)-1-[4-methyl-2-(propan-2-yl)pyridin-3-yl]-4-[(2S)-2-methyl-4-(prop-2-enoyl)piperazin-1-yl]pyrido[2,3-d]pyrimidin-2(1H)-one]",phosphorylation of extracellular signal-regulated kinase (ERK),inhibited nearly all detectable phosphorylation of extracellular signal-regulated kinase (ERK)
